Test results published in article PMC5734042, “Deciphering the Origin, Evolution, and Physiological Function of the Subtelomeric Aryl-Alcohol Dehydrogenase Gene Family in the Yeast Saccharomyces cerevisiae” (Applied and Environmental Microbiology, 2017).
One block for each molecule: values may come before it.

Columns and labels:
Settings in all cases: NADPH co-substrate
ScAad10^-35Cp = target: T1, ScAad10^-35Cp (Saccharomyces cerevisiae, UniProt P47182); assay: spectrophotometric NADPH consumption at […] nm; assay type: biochemical
T1 construct: gene AAD10; resurrected pseudogene: in-frame upstream 264 bp (88 residues) restored to annotated Aad10, stop TAG to CAG (Gln) at nt -35; annotated natural ORF (YJR155W) lacks these residues; N-terminal His6-GST and C-terminal His6 tags, E. coli BL21 Star
T1 sequence (P47182 1-288): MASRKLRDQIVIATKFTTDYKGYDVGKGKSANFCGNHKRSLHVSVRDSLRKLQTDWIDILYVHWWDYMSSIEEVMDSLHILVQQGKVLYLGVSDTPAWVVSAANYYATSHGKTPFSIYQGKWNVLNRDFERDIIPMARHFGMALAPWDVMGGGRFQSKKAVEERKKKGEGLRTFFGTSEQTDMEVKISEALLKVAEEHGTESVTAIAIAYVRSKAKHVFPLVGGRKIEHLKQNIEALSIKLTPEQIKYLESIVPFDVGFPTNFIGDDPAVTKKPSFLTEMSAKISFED

PcAad1p = target: T2, PcAad1p (Phanerodontia chrysosporium, UniProt Q01752); assay: spectrophotometric NADPH consumption at […] nm; assay type: biochemical
T2 construct: full length, plasmid pGS-21a-PcAad1, N-terminal His6-GST and C-terminal His6 tags kept, E. coli BL21 Star; coding primer starts ATGAACATCTGGGCACCCG (MNIWAP)
T2 sequence (Q01752 1-385): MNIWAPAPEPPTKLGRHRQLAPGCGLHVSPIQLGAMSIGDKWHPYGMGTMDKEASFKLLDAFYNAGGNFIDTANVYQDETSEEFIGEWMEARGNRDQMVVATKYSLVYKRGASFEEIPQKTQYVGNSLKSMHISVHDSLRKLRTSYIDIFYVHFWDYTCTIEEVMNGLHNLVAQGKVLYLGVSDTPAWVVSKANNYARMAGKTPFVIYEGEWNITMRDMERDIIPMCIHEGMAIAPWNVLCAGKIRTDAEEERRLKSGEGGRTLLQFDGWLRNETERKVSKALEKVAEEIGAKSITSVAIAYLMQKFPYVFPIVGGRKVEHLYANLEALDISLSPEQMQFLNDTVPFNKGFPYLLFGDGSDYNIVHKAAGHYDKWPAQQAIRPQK

purified protein = substrate: O=Cc1ccc(CO)o1; assay: purified protein; assay type: biochemical, Phanerodontia chrysosporium

Km (ScAad10^-35Cp): 608 ± 246 µM
Molecule: O=Cc1ccc(CO)o1 [hydroxymethylfurfural]

Molecule: COc1ccc(C=O)cc1 [4-methoxybenzaldehyde]
Km (PcAad1p): 87.3 ± 116 µM

Molecule: O=CCc1ccccc1 [phenylacetaldehyde]
Km (PcAad1p): 527 ± 72.5 µM

B1: PcAad1p (Phanerodontia chrysosporium) (protein)
chain: MNIWAPAPEPPTKLGRHRQLAPGCGLHVSPIQLGAMSIGDKWHPYGMGTMDKEASFKLLDAFYNAGGNFIDTANVYQDETSEEFIGEWMEARGNRDQMVVATKYSLVYKRGASFEEIPQKTQYVGNSLKSMHISVHDSLRKLRTSYIDIFYVHFWDYTCTIEEVMNGLHNLVAQGKVLYLGVSDTPAWVVSKANNYARMAGKTPFVIYEGEWNITMRDMERDIIPMCIHEGMAIAPWNVLCAGKIRTDAEEERRLKSGEGGRTLLQFDGWLRNETERKVSKALEKVAEEIGAKSITSVAIAYLMQKFPYVFPIVGGRKVEHLYANLEALDISLSPEQMQFLNDTVPFNKGFPYLLFGDGSDYNIVHKAAGHYDKWPAQQAIRPQK
notes: full length, plasmid pGS-21a-PcAad1, N-terminal His6-GST and C-terminal His6 tags kept, E. coli BL21 Star; coding primer starts … (MNIWAP)
Km (purified protein): 171 ± 36.7 µM
Vmax (purified protein): 2.40 ± 0.27 in micromoles per minute per mg
